This is an account of results in PubChem BioAssay (NCI).

Experiment in all cases: inhibition of tumour cell growth, NCI panel, 48 h
The subject of test [1] is LOX IMVI melanoma.
The test system of test [2] is A498 renal.
The subject of test [3] is MOLT-4 leukemia.
The test system of test [4] is DU-145 prostate.
Test [5] concerns OVCAR-5 ovarian.
In test [6] the test system is OVCAR-4 ovarian.
In test [7] the test system is K-562 leukemia.
The subject of test [8] is SK-MEL-5 melanoma.
In test [9] the test system is HCT-15 colon.
The subject of test [10] is MCF7 breast.

“And” between values parts separate entries of the source, which are not always exact repeats. Identical values can stand only once.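 Growth conditions: 96-well plates. Treatment: test compound, 48 hours, 5 concentrations. Analysis: linear interpolation between bracketing concentrations; unreached endpoints set to highest concentration. GI50 = concentration required for 50% inhibition of growth. Definition used: TGI = concentration required for complete inhibition of growth.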

Take `C[C@H]1CNC(=O)c2cnn3ccc(nc23)N[C@H](C)c2cc(F)ccc2O1`: the GI50 in [1] is 0.334 µM; in [2], 0.216 µM; in test [3], 1.96 µM; in test [4], 2.26 µM; in test [5] it was 0.385 µM; in [6], 1.67 µM. In addition, the GI50 in test [7] was 3.64 µM; in [8], 8.91 µM; in test [9], 2.05 µM; in test [10], 0.381 µM. For the same compound, the TGI was found to be 1.43 µM in [1]; 0.886 µM in [2]; 42.2 µM in test [3]; 12.8 µM in test [4]; 9.56 µM in test [5]; 26.6 µM in [6]. The TGI in test [7] was greater than 100 µM; in test [8] it was 32.3 µM; in test [9], 13.4 µM; in test [10], greater than 100 µM.
`COc1cc(C(=O)O[C@H](C(=O)NCCN(C)CCNC(=O)[C@@H](OC(=O)c2cc(OC)cc3c(C)cccc23)[C@]2(C)CO2)[C@]2(C)CO2)c2cccc(C)c2c1`: the GI50 was less than 0.01 µM in test [1]; 0.888 µM in test [2]; less than 0.01 µM in test [3]; less than 0.0328 µM in test [4]; 0.217 µM in test [5]; 0.056 µM in test [6]. The GI50 in test [7] is less than 0.0389 µM; in [8] it was 0.0173 µM; in test [9], 0.0109 µM; in test [10], less than 0.01 µM. Further, the TGI stood at 2.82 µM in [2]; 0.153 µM in test [3]; 0.162 µM in [4]; 2.75 µM in test [5]; 0.679 µM in [6]; 6.85 µM in [7]. Besides, the TGI in test [8] turned out to be 0.178 µM; in test [9], 1.02 µM; in test [10] it was 0.327 µM.
`CCCCCCCCCCCCCCCCOP(=O)([O-])OCC[N+](C)(C)C`: the GI50 is 1.36 µM in [1]; 1.13 µM in test [2]; 0.868 µM in test [3]; 4.01 µM in test [4]; 0.735 µM in test [5]; 2.88 µM in test [6]. Moreover, the GI50 in [8] was 1.92 µM; in test [9], 0.842 µM; in test [10], 3.62 µM. For the same compound, the TGI in test [2] was 5.24 µM and 37.4 µM; in test [4], 14.7 µM and 39.9 µM; in test [5], 4.04 µM and 24.9 µM; in test [6], 12.6 µM and 38.6 µM; in test [7], 64.9 µM; in [8], 5.35 µM and 52 µM. In addition, the TGI in test [10] was 16 µM and 59.1 µM.
Regarding `CCC1(OC(=O)CN)C(=O)OCc2c1cc1n(c2=O)Cc2cc3ccccc3nc2-1` (centres undefined), the GI50 in test [1] was 0.0089 µM; in test [2], 0.0129 µM; in test [3], 0.00396 µM; in [4], 0.00536 µM; in [5], 0.0728 µM; in test [6], 0.256 µM. In addition, the GI50 in test [7] was 0.17 µM; in test [8] it was 0.0187 µM and < 0.0128 µM; in [9] it was 0.192 µM; in [10] it was 0.0251 µM. The TGI in test [2] was 0.159 µM and 0.559 µM; in test [3] it was 0.0305 µM; in [4], 0.551 µM; in [5], 0.6 µM and 0.533 µM; in test [6] it was 0.994 µM and 4.55 µM; in test [7], greater than 100 µM. The TGI in [8] is 0.107 µM and 0.0329 µM; in [9], greater than 20.3 µM.
Turning to `O=C(Nc1ccc(F)cc1)Nc1ccc(Br)c(C(F)(F)F)c1`, the GI50 in test [1] is 2.51 µM; in [2], 1.92 µM; in [3], 1.95 µM; in test [4] it was 3.27 µM; in test [5] it was 2.55 µM; in test [6], 2.13 µM. Also, the GI50 is 2.13 µM in test [7], 1.67 µM in test [8], 2.35 µM in [9] and 2.29 µM in [10]. Moreover, the TGI in [1] was found to be 7.39 µM; in test [2], 5.15 µM; in [3], 5.53 µM; in test [4] it was 13.4 µM; in test [5], 10.8 µM; in test [6], 9.75 µM. For the same compound, the TGI amounted to 11.5 µM in [7], 3.11 µM in test [8], 10.8 µM in test [9] and 10.3 µM in test [10].
Take `CC([C@H]1CC=C2C3CCC4=C[C@@H](N(C)C)CC[C@]4(C)C3CC[C@@]21C)N(C)C` (some centres undefined): the GI50 in [1] was 1.6 µM; in test [2] it was 3.27 µM; in test [3], 1.97 µM; in [4] it was 6.63 µM; in [5], 6.23 µM; in test [6], 3.26 µM. Also, the GI50 in [7] is 0.611 µM; in test [8], 1.35 µM; in test [9], 1.38 µM; in test [10] it was 1.98 µM. Further, the TGI in test [1] worked out at 3.69 µM; in test [2], 13.9 µM; in [3] it was 5.31 µM; in test [4], 20.4 µM; in [5] it was 19.5 µM; in test [6] it was 21.9 µM. In addition, the TGI worked out at 3.05 µM in [7], 2.71 µM in test [8], 3.82 µM in [9] and 9.4 µM in test [10].
Take `CC1(C)OC(=O)C(C#N)=C1C[n+]1ccccc1`: the TGI in [1], in [2], in test [3], in test [4], in test [5] and in test [6] was greater than 10 µM throughout. The TGI in [7], in [8], in test [9] and in test [10] was greater than 10 µM each time.
Take `ClCc1ccccc1Cn1cnc2c(Cl)ncnc21`: the GI50 in [1] is 2.14 µM; in test [2] it was 17.4 µM; in test [3] it was 1.6 µM; in [4] it was 5.65 µM; in test [5], 2.46 µM; in test [6], 3.39 µM. Moreover, the GI50 in [7] is 1.2 µM; in test [8] it was 1.4 µM; in [9], 2.07 µM; in [10] it was 11.1 µM. Further, the TGI in test [1] turned out to be 5.21 µM; in test [2] it was 32.2 µM; in test [3], 5.28 µM; in test [4], 34.4 µM; in test [5], 6.53 µM; in [6], 12.2 µM. The TGI in test [7] was 5.13 µM; in [8] it was 2.88 µM; in test [9] it was 4.71 µM; in test [10], greater than 100 µM.
As to `COc1cc(OC)c(OC)cc1/C=C/c1cnnc2ccccc12`, the TGI in test [1], in test [2], in test [3], in test [4], in test [5] and in test [6] was greater than 10 µM in each case. Moreover, the TGI in test [7], in test [8], in [9] and in test [10] was greater than 10 µM each time.
Turning to `CCOC(=O)C(=CNC(=S)N=Nc1c(O)[nH]c2ccccc12)C(=O)OCC`, the TGI in test [1], in test [2], in test [3], in test [4], in [5] and in [6] was greater than 100 µM each time. Further, the TGI in test [7], in test [8] and in test [10] was greater than 100 µM in each case.
With `Cc1ccc(NC(=O)/C(Cc2cc(=O)oc3cc(O)ccc23)=N\NC(C)(C)C)cc1C`, the TGI in test [1], in test [2], in test [3], in test [4], in test [6] and in [7] was greater than 100 µM in each case. The TGI in test [8], in [9] and in test [10] was greater than 100 µM throughout.
In the case of `O=C(c1ccccc1)c1c(C(F)(F)F)n([O-])c2cc(C(F)(F)F)ccc2[n+]1=O`, the GI50 in test [1] was 0.258 µM; in test [2], 2.22 µM; in test [3], 0.6 µM; in test [4], 1.22 µM; in test [5], 1.99 µM; in [6], 1.19 µM. For the same compound, the GI50 in [7] was 0.231 µM; in test [8] it was 1.69 µM; in [9] it was 1.6 µM; in [10] it was 1.42 µM. In addition, the TGI in test [1] was 0.745 µM; in test [2], 5.22 µM; in [3] it was 2.29 µM; in [4], 2.47 µM; in [5], 5.54 µM; in [6], 2.89 µM. The TGI in test [7] amounted to 0.559 µM; in test [8] it was 3.24 µM; in test [9] it was 3.24 µM; in [10], 3.29 µM.
On to `CCCCCC[C@@H](C)NC(=O)c1ccc(Nc2nc3ccccc3c3occc23)cc1`, for which the GI50 was 19.3 µM in [1]; 2.4 µM in test [2]; 3.71 µM in test [3]; 1.92 µM in test [4]; 5.72 µM in test [5]; 4.82 µM in test [7]. In addition, the GI50 is 1.66 µM in test [8], 8.93 µM in test [9] and 7.58 µM in test [10]. Also, the TGI in test [1] was 42.4 µM; in test [2], 7.54 µM; in test [3], greater than 100 µM; in [4], 13.2 µM; in test [5], greater than 100 µM; in [7], greater than 100 µM. For the same compound, the results for the TGI in [8], in test [9] and in test [10] were 4.01 µM, greater than 100 µM and greater than 100 µM, respectively.
